The target in assay [1] is RNA-directed RNA polymerase (Hepacivirus hominis) (UniProt O39930).
For assay [2] the target is unchanged. The source holds these as a separate data set.
The target is the same in assay [3]. The source holds these as a separate data set.
Assay [4] has the same target. The source holds these as a separate data set.
For assay [5] the target is unchanged. This is another data set of the same source.
For assay [6] the target is unchanged. The source holds these as a separate data set.
Assay [7] has the same target. This is another data set of the same source.
The target is the same in assay [8]. This is another data set of the same source.
Assay [9] shares this target. This is another data set of the same source.
The target is the same in assay [10]. This is another data set of the same source.

Sequence of RNA-directed RNA polymerase (Hepacivirus hominis) (O39930 1-591): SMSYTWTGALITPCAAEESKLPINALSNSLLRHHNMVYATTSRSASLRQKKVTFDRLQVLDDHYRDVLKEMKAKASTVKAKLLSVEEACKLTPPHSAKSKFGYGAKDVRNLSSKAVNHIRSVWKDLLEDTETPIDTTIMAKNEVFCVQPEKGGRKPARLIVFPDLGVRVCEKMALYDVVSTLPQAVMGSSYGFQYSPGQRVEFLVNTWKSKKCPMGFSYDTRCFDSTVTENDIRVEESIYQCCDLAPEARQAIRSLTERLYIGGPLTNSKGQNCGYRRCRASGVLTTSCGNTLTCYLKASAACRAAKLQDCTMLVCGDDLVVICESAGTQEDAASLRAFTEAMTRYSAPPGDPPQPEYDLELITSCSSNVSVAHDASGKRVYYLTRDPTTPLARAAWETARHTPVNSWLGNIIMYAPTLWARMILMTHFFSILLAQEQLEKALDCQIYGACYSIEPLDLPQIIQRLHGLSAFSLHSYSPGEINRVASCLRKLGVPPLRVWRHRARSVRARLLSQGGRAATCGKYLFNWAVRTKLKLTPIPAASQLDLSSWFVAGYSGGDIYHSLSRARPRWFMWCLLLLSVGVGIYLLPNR

The compound `CN1CCCCCNC(=O)C2=Cc3ccc(Cl)cc3-c3c(C4CCCCC4)c4ccc(cc4n3C2)C(=O)NS1(=O)=O` yielded a k off in assay [1] of 0.0038 s⁻¹.
As for `COc1ccc2c(c1)C=C1Cn3c-2c(C2CCCCC2)c2ccc(cc23)C(=O)NS(=O)(=O)N(C)CCCCN(C)C1=O`, the k off in assay [1] was determined as 4.8e-05 s⁻¹.
On to `CN1CCCCN(C)S(=O)(=O)NC(=O)c2ccc3c(C4CCCCC4)c4n(c3c2)CC(=Cc2ccc(Cl)cc2-4)C1=O`, for which, in assay [1], the k off is 0.0037 s⁻¹.
Still for that read-out and setting: the value for `COc1ccc2c(c1)C(C)=C1Cn3c-2c(C2CCCCC2)c2ccc(cc23)C(=O)NS(=O)(=O)N(C)CCOCCN(C)C1=O` was 3.6e-05 s⁻¹.
Consider `COc1ccc2c(c1)C=C1Cn3c-2c(C2CCCCC2)c2ccc(cc23)C(=O)NS(=O)(=O)N(C)CCOCCN(C)C1=O`, for which the k off stood at 9e-05 s⁻¹ in assay [1]; 0.0001 s⁻¹ in assay [2]; 0.022 s⁻¹ in [3]; 0.00097 s⁻¹ in assay [4]; 0.022 s⁻¹ in [5]; 0.00084 s⁻¹ in assay [6]. The k off amounted to 0.00015 s⁻¹ in assay [7], 0.00015 s⁻¹ in assay [8], 0.00013 s⁻¹ in [9] and 7.6e-05 s⁻¹ in [10].
In assay [1], `COc1ccc2c(c1)C=C1Cn3c-2c(C2CCCCC2)c2ccc(cc23)C(=O)NS(=O)(=O)N(C(C)C)CCCCN(C)C1=O` returned a k off of 6.6e-05 s⁻¹.
Same read-out and setting: the same measure for `COc1ccc2c(c1)C=C1Cn3c-2c(C2CCCCC2)c2ccc(cc23)C(=O)NS(=O)(=O)N(C)CCCCNC1=O`: 4.1e-05 s⁻¹.
The compound `COc1ccc2c(c1)C=C1Cn3c-2c(C2CCCCC2)c2ccc(cc23)C(=O)NS(=O)(=O)NCCCCN(C)C1=O` had a k off in assay [1] of 0.00031 s⁻¹.
Compound `COc1ccc2c(c1)C(C)=C1Cn3c-2c(C2CCCCC2)c2ccc(cc23)C(=O)NS(=O)(=O)N(C)CCCCN(C)C1=O` had a k off in assay [1] of 0.00016 s⁻¹.

These data come from ChEMBL document CHEMBL3886897, “Macrocyclic indole derivatives useful as hepatitis C virus inhibitors” (2016).
